Test results: patent US7531530B2, “Therapeutic compounds” (Cancer Research Technology Limited, priority 2003, dated 2009)

Tests used:
[1] = Plasma and tumour pharmacokinetics in mice bearing SW620 xenografts; format: in vivo
PARP (pbl parp) = molecular target: T1, PARP (pbl parp) (Mus musculus, UniProt P11103); assay: PARP activity in peripheral blood lymphocytes of formula I-phosphate treated mice (10H antibody); format: in vivo
T1 construct: from tissue; host or cells: peripheral blood lymphocytes of treated mice

PARP (tumour PARP) = PARP (tumour PARP) (Homo sapiens, UniProt P09874); assay: PARP activity in SW620 tumour homogenates of formula I-phosphate treated mice (10H antibody); format: in vivo
Solubility = format: physicochemical; details: phosphate salt versus parent compound
PARP [2] = molecular target: T2, PARP (Mus musculus, UniProt P11103); assay: Cellular PARP activity assay, permeabilised L1210 cells; format: cell-based; details: L1210 cells permeabilised with digitonin prior to adding the inhibitor
T2 construct: endogenous in cells; host or cells: L1210 cells
Description: (§1) Exponentially growing cells were exposed to 1% DMSO in culture medium (control) or a compound of formula I or III in 1% DMSO at the concentrations indicated in FIG. 4 to cells permeabilised with digitonin, or intact cells for 20 minutes prior to washing and digitonin-permeabilization. PARP activity was measured by incorporation of a [32P] labelled NAD+ substrate into TCA precipitateble polymers after stimulation by the addition of a blunt-ended oligonucleotide and compared with non-oligonucleotide-stimulated cells. PARP activity in tumour homogenates (1 in 40 in isotonic buffer) from formula III-treated mice was measured in the same way. PARP activity in pbls and tumour homogenates from formula I-phosphate treated mice was measured by immunological detection of polymer using the 10H antibody. Briefly, tumour homogenates diluted to up to 1:1000 in isotonic buffer were incubated with 350 μM NAD for 6 min and blotted onto nitrocellulose membrane. The poly(ADP-ribose) (PAR) polymer formation was quantified by chemiluminescence detection using a Fuji LAS3000 UV Illuminator by reference to serial dilutions of a PAR standard, following incubation with 10H antibody to PAR and a secondary anti-mouse antibody.

PARP (tumour PARP act) = molecular target: T3, PARP (tumour PARP act) (Homo sapiens, UniProt P09874); assay: PARP activity in SW620 tumour homogenates of formula III-treated mice ([32P] NAD+ incorporation); format: in vivo; details: formula III 10 mg/kg intraperitoneal; SW620 xenografts
T3 construct: from tissue; host or cells: SW620 xenograft tumour homogenates from treated mice
Description: as §1

SW620 xenografts = assay: Tumour growth in mice bearing SW620 xenografts; format: in vivo; details: formula III 15 mg/kg daily×5 in conjunction with temozolomide
From the text: FIG. 8 is a graph showing the tumour growth (median relative tumour volume) in mice bearing SW620 xenografts following treatment with formula III in combination with temozolomide (TMZ) and with TMZ alone;
FIG. 9 is a graph showing the tumour growth (median relative tumour volume) of mice bearing SW620 xenografts following treatment with formula I-phosphate in combination with temozolomide (TMZ) and with formula I-phosphate and TMZ alone;
However, shortly after this time the tumour size begins to increase.

PARP [3] = molecular target: T2, PARP; assay: Cellular PARP activity assay, intact L1210 cells; format: cell-based; details: intact L1210 cells exposed for 20 minutes prior to permeabilisation
Description: as §1

[4] = formula I-phosphate 1 mg/kg, compared with 10 mg/kg
[5] = formula I-phosphate 10 mg/kg intraperitoneal, 24 hr after administration
[6] = formula I-phosphate 10 mg/kg intraperitoneal, thirty minutes after administration
[7] = formula III 10 mg/kg intraperitoneal

T2 sequence (P11103 whole entry): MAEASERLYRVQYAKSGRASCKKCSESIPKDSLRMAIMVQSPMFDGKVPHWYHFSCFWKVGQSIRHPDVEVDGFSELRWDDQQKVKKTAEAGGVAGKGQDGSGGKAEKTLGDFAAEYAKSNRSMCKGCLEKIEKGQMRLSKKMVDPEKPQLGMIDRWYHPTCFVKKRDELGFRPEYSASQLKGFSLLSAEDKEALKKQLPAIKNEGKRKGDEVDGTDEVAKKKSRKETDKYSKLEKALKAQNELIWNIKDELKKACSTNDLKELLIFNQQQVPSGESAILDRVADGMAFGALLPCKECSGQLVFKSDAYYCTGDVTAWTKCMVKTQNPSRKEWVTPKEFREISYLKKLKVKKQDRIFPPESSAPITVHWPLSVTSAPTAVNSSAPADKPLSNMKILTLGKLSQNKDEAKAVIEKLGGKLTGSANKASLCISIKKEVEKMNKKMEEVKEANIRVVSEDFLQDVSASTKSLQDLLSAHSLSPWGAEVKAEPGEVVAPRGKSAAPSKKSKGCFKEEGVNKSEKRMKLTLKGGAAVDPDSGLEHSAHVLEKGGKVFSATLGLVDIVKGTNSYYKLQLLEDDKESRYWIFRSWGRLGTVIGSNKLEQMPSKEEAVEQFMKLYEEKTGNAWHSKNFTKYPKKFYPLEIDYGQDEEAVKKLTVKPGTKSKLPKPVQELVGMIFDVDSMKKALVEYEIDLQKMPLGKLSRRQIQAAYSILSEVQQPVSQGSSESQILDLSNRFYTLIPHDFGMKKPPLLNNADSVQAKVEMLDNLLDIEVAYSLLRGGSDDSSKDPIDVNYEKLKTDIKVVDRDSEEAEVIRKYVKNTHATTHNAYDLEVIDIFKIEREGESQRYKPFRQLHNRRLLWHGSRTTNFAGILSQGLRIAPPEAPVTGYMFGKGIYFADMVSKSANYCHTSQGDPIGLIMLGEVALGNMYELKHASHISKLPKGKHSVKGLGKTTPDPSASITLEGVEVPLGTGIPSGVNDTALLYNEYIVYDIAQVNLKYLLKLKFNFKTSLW
Chain of PARP (tumour PARP) (P09874 whole entry): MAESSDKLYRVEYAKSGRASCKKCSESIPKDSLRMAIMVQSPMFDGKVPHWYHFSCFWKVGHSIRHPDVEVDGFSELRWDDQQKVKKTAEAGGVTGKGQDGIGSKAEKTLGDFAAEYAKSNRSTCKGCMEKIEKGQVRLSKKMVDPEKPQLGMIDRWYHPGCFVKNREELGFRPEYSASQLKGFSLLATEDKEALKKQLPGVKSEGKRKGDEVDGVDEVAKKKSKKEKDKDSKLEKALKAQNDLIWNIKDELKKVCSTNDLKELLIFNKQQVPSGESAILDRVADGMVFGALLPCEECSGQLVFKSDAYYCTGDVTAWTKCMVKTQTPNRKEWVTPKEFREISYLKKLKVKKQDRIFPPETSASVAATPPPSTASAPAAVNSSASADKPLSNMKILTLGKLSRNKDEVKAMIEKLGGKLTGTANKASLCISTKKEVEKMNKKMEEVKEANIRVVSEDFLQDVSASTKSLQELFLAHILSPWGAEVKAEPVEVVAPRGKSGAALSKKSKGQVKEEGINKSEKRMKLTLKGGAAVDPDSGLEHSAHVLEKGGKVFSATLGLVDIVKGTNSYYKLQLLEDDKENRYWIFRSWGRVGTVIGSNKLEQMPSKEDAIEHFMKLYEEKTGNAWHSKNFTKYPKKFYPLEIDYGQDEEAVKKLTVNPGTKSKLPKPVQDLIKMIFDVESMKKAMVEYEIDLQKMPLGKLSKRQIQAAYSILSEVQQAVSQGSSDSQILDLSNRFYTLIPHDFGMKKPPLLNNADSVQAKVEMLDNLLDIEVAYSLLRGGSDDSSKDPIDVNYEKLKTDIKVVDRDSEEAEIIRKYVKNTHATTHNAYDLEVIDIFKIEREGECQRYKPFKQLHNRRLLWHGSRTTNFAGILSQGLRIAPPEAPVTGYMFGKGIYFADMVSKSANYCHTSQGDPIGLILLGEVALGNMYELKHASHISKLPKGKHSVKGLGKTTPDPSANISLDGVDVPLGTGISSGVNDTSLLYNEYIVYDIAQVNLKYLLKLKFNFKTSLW
T1 sequence (P11103 whole entry): as the sequence (P11103 whole entry) above
T3 sequence (P09874 whole entry): as the sequence (P09874 whole entry) above

plasma concentration of formula I [1, 4] | tumour concentration of formula I [1, 4] | plasma concentration of parent compound (formula I) [1, 5] | tumour concentration of parent compound (formula I) [1, 5] | plasma concentration of parent compound (formula I) [1, 6] | tumour concentration of parent compound (formula I) [1, 6] | effect on PARP activity in pbls (PARP (pbl parp); [4]) | PARP activity in pbls (PARP (pbl parp); formula I-phosphate 10 mg/kg intraperitoneal, up to 24 hr) | effect on PARP activity in tumour (PARP (tumour PARP); [4]) | PARP activity in tumour (PARP (tumour PARP); formula I-phosphate 10 mg/kg intraperitoneal, up to 24 hr, SW620 xenografts) | solubility relative to formula I (Solubility) | PARP inhibitory activity, formula I compared with formula III (PARP [2]) | distribution to the tumour [1, 7] | retention in tumour versus plasma with time [1, 7] | PARP activity in the tumour (PARP (tumour PARP act)) | PARP inhibitory activity, formula I compared with formula III (PARP [3]) | SMILES | decrease of concentration with time, plasma versus tumour ([1]; formula I-phosphate 10 mg/kg intraperitoneal) | tumour outcome at autopsy at the end of the experiment (SW620 xenografts)
lower levels | lower levels | none could be detected | significant levels were detectable | high levels | high levels | less pronounced effect | < 50 % control | less pronounced effect | < 50 % control | increases the solubility | – | – | – | – | – | CNCc1ccc(-c2[nH]c3cc(F)cc4c3c2CCNC4=O)cc1.O=P(O)(O)O [formula I-phosphate] | more rapidly in the plasma than in the tumour | –
– | – | – | – | – | – | – | – | – | – | – | no difference | distributes well to the tumour | preferentially retained with time | inhibits PARP activity | – | CN(C)Cc1ccc(-c2nc3cccc4c3n2CCNC4=O)cc1 [formula III] | – | complete tumour regression
– | – | – | – | – | – | – | – | – | – | – | no difference | – | – | – | more potent | CNCc1ccc(-c2[nH]c3cc(F)cc4c3c2CCNC4=O)cc1 [formula I] | – | –
